Experimental data reported in PMC7352759, “S(+)-(2E)-N-(2-Hydroxypropyl)-3-Phenylprop-2-Enamide (KM-568): A Novel Cinnamamide Derivative with Anticonvulsant Activity in Animal Models of Seizures and Epilepsy” (International Journal of Molecular Sciences, 2020).

Tests used:
CF-1 mice = experiment: Chemoconvulsant test, bicuculine; type: in vivo; conditions: 0.25 h
Procedure: Initially, compound KM-568 was administered i.p. at 130.0 mg/kg in two groups of CF-1 mice (n = 8). After 0.25 h, the subcutaneous injections of either bicuculine (2.7 mg/kg) or picrotoxin (2.5 mg/kg) were performed. The, animals were placed in isolation cages and observed for 30 min (in a bicuculine assay) or 45 min (in a picrotoxin assay) for the presence or absence of an episode of a clonic seizure.

[1] = test system: Frings audiogenic seizure-susceptible mice; experiment: Frings audiogenic seizure-susceptible mouse model; type: in vivo; conditions: 0.25 h; for Results (protected/tested animals): Frings mice, i.p.
Procedure: Frings audiogenic seizure-susceptible mice are genetically susceptible to sound-induced reflex seizures. Mice (18–25 g) were administered i.p. compound KM-568 at the doses in the range of 10.0–17.5 mg/kg. Fifteen minutes later, an individual mouse was placed in a round plexiglass jar (15 cm diameter, 18 cm high) and exposed to a sound stimulus of 110 decibels (11 kHz) delivered for 20 sec.

corneal kindled mice = experiment: Corneal kindled seizure model in mice; type: in vivo; conditions: for Average Seizure Score / Results (protected/tested animals): corneal kindled mice, i.p.
Procedure: Mice were stimulated via corneal electrodes (3 mA, 60 Hz, 3 sec) for an average of 12 days, 4 h apart. Prior to each stimulation, a drop of 0.5% tetracaine hydrochloride in saline was applied to the cornea. After development of five consecutive seizure stages at level 5 according to the Racine scale, animals were considered kindled. The groups of 8 mice received an intraperitoneal injection of appropriate doses of KM-568. […] Mice were scored as protected if the seizure score was less than or equal to three and not protected if the seizure score was more than three, based on the Racine scoring system.

mice = experiment: Formalin test of hyperalgesia; type: in vivo; conditions: 44 mg/kg i.p.; for Reduction of time of licking of the affected paw: not statistically significant; for AUC % Control: vs methylcellulose
Procedure: 0.05% formalin was injected subdermal to the hindpaws of mice, which caused licking. In the tested group (n = 8), KM-568 was administered intraperitoneally 0.25 h prior to formalin at the dose of 44 mg/kg. In the control group, methylcellulose was used. Animals were then observed for the first 2 min of each 5 min for a total of 40 min. The cumulative duration of licking (in sec) during each 2-min recording period was measured for analysis across compound and vehicle-pretreated groups.

[2] = test system: rat cerebral cortex AMPA receptor; experiment: AMPA receptor radioligand binding ([3H]AMPA); conditions: 10 µM; agonist radioligand
Procedure: (§1) In order to identify molecular mechanism of action, KM-568 was tested at 10 µM in three radioligand binding assays: rat cerebral cortex GABA receptor non-selective agonist radioligand, AMPA (α-amino-3-hydroxy-5-methyl-4-isoxazolepropionic acid) receptor agonist radioligand, and NMDA (N-methyl-D-aspartate) receptor antagonist radioligand as well as one functional assay involving a human recombinant TRPV1 receptor expressed in CHO cells (agonist and antagonist effects).
(§2) Tests were performed by Eurofins Cerep (Eurofins CEREP SA, Celle-Lévescault, France) as a commercial service. In radioligand assays, rat cerebral cortex GABA receptor as well as rat cerebral cortex AMPA (α-amino-3-hydroxy-5-methyl-4-isoxazolepropionic acid) and NMDA (N-methyl-D-aspartate) receptors with 10 nM [^3H]GABA, 8 nM [^3H]AMPA, and 5 nM [^3H]CGP39653, respectively, were used. The results were detected by means of scintillation counting. In functional assays, a human recombinant TRPV1 receptor expressed in Chinese hamster ovary (CHO) cells with 1 µM capsaicin or 30 nM capsazepine were used. Fluorimetry was used as a detection method.

[3] = test system: rat cerebral cortex NMDA receptor; experiment: NMDA receptor radioligand binding ([3H]CGP39653); conditions: 10 µM; antagonist radioligand
Procedure: as §1, §2

HepG2 cells = experiment: MTT cytotoxicity assay, HepG2; type: cell-based, human
Procedure: Human liver cancer HepG2 cell line (ATCC HB8065) and rat cardiomyoblast cell line H9c2 (ATCC-CRL1446) were purchased in ATCC (American Type Culture Collection, Manassas, VA, USA). The cells were cultured in standard conditions (37 °C, 5% CO2) in EMEM medium (ATCC, Manassas, VA, USA), supplemented with 10% FBS (Gibco, Waltham, MA, USA) and antibiotics (1% streptomycin/penicillin mixture, Sigma–Aldrich, Darmstadt, Germany) or DMEM high glucose (ATCC, Manassas, VA, USA) supplemented with 10% FBS (Gibco, Waltham, MA, USA) and antibiotics (1% streptomycin/penicillin mixture, Sigma–Aldrich, Darmstadt, Germany), respectively.
The MTT colorimetric assay was used to determine the cytotoxic effects of the KM-568 and DOX (Sigma–Aldrich, Darmstadt, Germany). Cells were seeded at a density of 1 × 10^4 in 96-well plates. Following overnight culture, the cells were then treated with KM-568 and DOX in concentration range 0.1–200 µM (hepatocytotoxicity) or 0.1–100 µM (cardiocytotoxicity). Following cell exposure to each drug for 24 h in 96 well plates, 10 µL MTT reagent (Sigma–Aldrich, Darmstadt, Germany) was added to each well; after 4 h of incubation (37 °C, 5% CO2), the medium was aspirated and formazan produced in cells appeared as dark crystals in the bottom of the wells. […] Then, absorbance was measured at 570 nm on a multi-well plate reader (Spectra Max iD3, Molecular Devices, San Jose, CA, USA). […]

C[C@H](O)CNC(=O)/C=C/c1ccccc1 [KM-568, S(+)-(2E)-N-(2-hydroxypropyl)-3-phenylprop-2-enamide]
ED50 (CF-1 mice; Mus musculus, ip): > 130 mg/kg | Bicuculine Results (protected/tested animals) (CF-1 mice; i.p., 130 mg/kg): 0/8 | Results (protected/tested animals) ([1]; 10.0 mg/kg): 1/8 | Results (protected/tested animals) ([1]; 12.5 mg/kg): 3/8 | Results (protected/tested animals) ([1]; 15.0 mg/kg): 6/8 | Results (protected/tested animals) ([1]; 17.5 mg/kg): 7/8 | ED50 ([1]; Mus musculus, ip): 13.2 mg/kg | ED50 (corneal kindled mice; Mus musculus, ip, mice, 0.5 h (table title)): 79.2 mg/kg | Average Seizure Score (corneal kindled mice; 57 mg/kg): 4.0 | Results (protected/tested animals) (corneal kindled mice; 57 mg/kg): 1/8 | Average Seizure Score (corneal kindled mice; 84 mg/kg): 3.625 | Results (protected/tested animals) (corneal kindled mice; 84 mg/kg): 5/8 | Average Seizure Score (corneal kindled mice; 115 mg/kg): 0.625 | Results (protected/tested animals) (corneal kindled mice; 115 mg/kg): 7/8 | AUC (total area under curve, time of licking) (mice; acute phase): 184.18 | Reduction of time of licking of the affected paw (mice; acute phase): 24% | AUC % Control (mice; acute phase): 76.37 % Control | AUC (total area under curve, time of licking) (mice; inflammatory phase): 556.81 | Reduction of time of licking of the affected paw (mice; inflammatory phase): 32% | AUC % Control (mice; inflammatory phase): 67.96 % Control | Effect in AMPA receptor radioligand binding assay [2]: No significant effects | Effect in NMDA receptor radioligand binding assay [3]: No significant effects | percent of living cells (HepG2 cells; HepG2, 24 h incubation with 100 µM): ~100% | cytotoxic effect, MTT assay (HepG2 cells; HepG2, up to 100 µM, 24 h): no cytotoxic effect
